From US12409154B2, “Pharmaceutical compositions for use in treating pain” (TAIWAN LIPOSOME COMPANY, LTD., priority 2019, dated 2025)

Tests used:
[1] = pKa of ropivacaine and calculated uncharged fraction; format: physicochemical; conditions: pH 6.0; calculated from pKa
Procedure: In some embodiments, the lipid-based complex of the anesthetic composition is formed by hydrating a lyophilized lipid cake with a pharmaceutically acceptable buffer solution at a pH higher than 5.5. […] In some embodiments, the lipid cake according to the present disclosure is prepared by dissolving apolar ropivacaine, phospholipid, and cholesterol in a solvent system, e.g., tert-butanol alone or a tert-butanol/water cosolvent, followed by removing the solvent system using a lyophilization technique.

[2] = tested on: adult subjects following inguinal hernia repair surgery; assay: Phase I/II study, single infiltrative local administration after inguinal hernia repair surgery: efficacy (NPRS pain, rescue analgesic use); format: in vivo, human; conditions: TLC590 475 mg, ropivacaine group 150 mg
Text: A Phase I/II, randomized, double-blind, comparator-controlled, dose-escalation study to assess the safety, PK, and efficacy of single postsurgical application of the anesthetic composition in accordance with the present disclosure (denoted as TLC590) compared with Naropin® via a single infiltrative local administration in adult subjects following inguinal hernia repair surgery. The study enrolled approximately 64 evaluable subjects who met all entry criteria across 4 cohorts. Dose escalation of a single postsurgical administration of TLC590 was performed using sequential dose levels, as compared with Naropin®. Dose-escalation were determined by review of […] (TEAEs) and all serious AEs (SAEs) by a safety monitoring committee (SMC). […] Pain intensity at rest and with movement assessed using an 11-point NPRS ranging from a score of 0 (no pain) to 10 (worst possible pain). • 2. […]

SMILES: CCCN1CCCC[C@H]1C(=O)Nc1c(C)cccc1C [ropivacaine]
- theoretically uncharged ropivacaine, share of available ropivacaine [1]: 0.8%
- median time to first rescue analgesic [2]: 13 h
- median time to first postsurgical opioid use ([2]; among those who used rescue opioid): 3.3 h
